Data: patent US8962621B2 (Shanghai Institute of Pharmaceutical Industry, priority 2010, dated 2015)

Tests used:
[1] = test system: male ICR mice; assay: Mice tail suspension test; format: in vivo
Protocol: Through intragastric administration, 10 mL·kg^−1 of each sample (physiological saline for the blank control group) is administrated. After 1 h of the treatment, the mouse is held with a medical tape at a position around 2 cm from the tip of its tail and hung upside-down in the suspension cage with its head 5 cm away from the bottom of the cage. The observation starts right after the mouse is suspended for 2 min and continues for 4 min. The time during which the mouse is immobile (no struggling or only tiny movements of its body/limbs) in this 4 min is accumulated (IT, immobility time). The percentage of the improvement is calculated according to the equation: Improvement %=[IT (blank control group)−IT (compound treatment group)]/IT (blank control group)×100%

[2] = test system: NA reuptake; assay: Yohimbine toxicity enhancement in mice; format: in vivo; conditions: for Mortality (%) 1 h / Mortality (%) 2 h / Mortality (%) 4 h / Mortality (%) 5 h / Mortality (%) 24 h: Yohimbine 25 mg/kg s.c. 1 h later, n = 10
Excerpt: Tests of the 5-hydroxytryptophan (DL-5-HTP) potentiation in mice, Yohimbine toxicity enhancement in mice and oxidation tremors can verify a compound's inhibition effect on 5-HT, NA and DA reuptake. Compound VI-2 is selected for the tests.
a) Principles • Yohimbine can prevent the binding of NA to the receptor by occupying α2 receptor. If an antidepressant which inhibits the deactivation of NA or inhibits NA reuptake is taken together with Yohimbine, an individual may be poisoned even to death due to the raised NA concentration.
b) Test Method • This test consists of 5 experimental groups: Yohimbine control group, VI-2-1 (30 mg/kg) group, VI-2-2 (18 mg/kg) group, VI2-3 (11 mg/kg) group and VI-2-4 (6.5 mg/kg) group. The highest dose used in the DL-5-HTP potentiation test in mice is designated as the reference for the highest dose group, down from which 4 dosage groups are set with a dose ratio of 0.6 across groups. For each VI-2 group, the compound at the corresponding dosage is administrated orally, or as in the case of the Yohimbine control group, N.S is given to the animals. One hour after the treatment, Yohimbine at 25 mg/kg (life-threatening dose for the animal) is administrated by subcutaneous injection to the mice in all groups. The mortality in each group is observed and recorded at 1, 2, 4, 5 and 24 h after the administration of Yohimbine. The ED50 value is calculated accordingly.

[3] = test system: rats; assay: Learned helplessness experiment (conditioned avoidance test); format: in vivo; conditions: for Incubation period of escape / Number of times of successful avoidance: one week, test 24 h after last administration, n = 10
Excerpt: (1) Principles • This is an animal model of depression. In this experiment, an animal is placed under conditions with aversive stimulus which it can't escape. […] This is a well recognized depression state, in which the level of catecholamine in the animal's brain is reduced. An antidepressant can act against this state. The learned helplessness model is sensitive to a variety of antidepressants used in a sub-long period (3-7 d), including tricyclic antidepressants, monoamine oxidase inhibitors, monoamine reuptake inhibitors and atypical antidepressants.
(2) Test Method • The animals are grouped. The pre-shock animals are generated the first day by performing inescapable electric shock. The pre-shock animals are given foot electric shock (0.8 mA, 15 s) for 60 times (1 min interval). Rats in the control group are only put into the cage for a same period of time but without any electric shock. • The administration of drugs starts the next day and lasts for one week. […] The conditioned avoidance test is conducted 24 h after the last administration to determine the number of times of successful avoidance and the incubation period of escape.

[4] = Acute toxicity experiment (single oral gavage); conditions: mouse, in vivo, po
[5] = test system: Histidine auxotroph mutant of mouse salmonella TA97, TA98, TA100 and TA102; format: cell-based
Excerpt: 5. […] 6. Bacterial Reverse Mutation Test of Compounds VI-1 VI-2 and VI16 • Strains: Histidine auxotroph mutant of mouse salmonella TA97, TA98, TA100 and TA102. • Test method: The one reported in Maron DM et al: (1983) Mutay Res. 113, 173-216 is used. • Results: The test consists of two parts, i.e., −S9 and +S9. […] No bacteriostatic actions to all the strains are observed at all the other dosages, and the growth background is good.

[6] = target: NA Transporter (hNAT) (Homo sapiens, UniProt P23975); assay: Inhibition of [3H]-NA reuptake in HEK 293 cells stably expressing hNAT; conditions: HEK293, read-out: NA Reuptake Inhibition
[7] = target: DA Transporter (hDAT) (Homo sapiens, UniProt Q01959); assay: Inhibition of [3H]-DA reuptake in HEK 293 cells stably expressing hDAT; conditions: HEK293, read-out: DA Reuptake Inhibition
[8] = target: 5-HT Transporter (hSERT) (Homo sapiens, UniProt P31645); assay: Inhibition of [3H]-5-HT reuptake in HEK 293 cells stably expressing hSERT;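 further: compound preincubated 10 min at 30 °C, then 10 min uptake, filter-bound radioactivity counted by scintillation, inhibition relative to total (blank) minus non-specific (positive control) uptake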
[9] = Venlafaxine 30 mg/kg, VI-2 at 3 doses (20, 10, 5 mg/kg)

Chain of 5-HT Transporter (hSERT) (P31645 whole entry): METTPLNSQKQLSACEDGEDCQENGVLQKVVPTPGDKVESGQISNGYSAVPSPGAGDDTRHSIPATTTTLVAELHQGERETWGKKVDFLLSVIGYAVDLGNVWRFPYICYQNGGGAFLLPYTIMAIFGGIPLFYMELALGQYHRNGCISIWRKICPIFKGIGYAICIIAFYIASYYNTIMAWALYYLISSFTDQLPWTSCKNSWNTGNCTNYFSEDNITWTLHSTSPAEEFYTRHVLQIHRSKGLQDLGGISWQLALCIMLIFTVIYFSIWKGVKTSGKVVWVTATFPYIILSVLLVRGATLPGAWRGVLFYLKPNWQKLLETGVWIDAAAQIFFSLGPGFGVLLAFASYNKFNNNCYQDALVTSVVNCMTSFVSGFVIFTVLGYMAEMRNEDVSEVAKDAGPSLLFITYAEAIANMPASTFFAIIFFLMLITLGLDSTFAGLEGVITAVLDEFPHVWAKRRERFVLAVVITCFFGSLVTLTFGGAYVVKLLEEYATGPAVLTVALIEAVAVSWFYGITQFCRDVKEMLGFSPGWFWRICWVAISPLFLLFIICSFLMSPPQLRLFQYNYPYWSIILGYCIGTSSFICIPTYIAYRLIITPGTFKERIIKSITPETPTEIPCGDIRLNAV
Chain of DA Transporter (hDAT) (Q01959 whole entry): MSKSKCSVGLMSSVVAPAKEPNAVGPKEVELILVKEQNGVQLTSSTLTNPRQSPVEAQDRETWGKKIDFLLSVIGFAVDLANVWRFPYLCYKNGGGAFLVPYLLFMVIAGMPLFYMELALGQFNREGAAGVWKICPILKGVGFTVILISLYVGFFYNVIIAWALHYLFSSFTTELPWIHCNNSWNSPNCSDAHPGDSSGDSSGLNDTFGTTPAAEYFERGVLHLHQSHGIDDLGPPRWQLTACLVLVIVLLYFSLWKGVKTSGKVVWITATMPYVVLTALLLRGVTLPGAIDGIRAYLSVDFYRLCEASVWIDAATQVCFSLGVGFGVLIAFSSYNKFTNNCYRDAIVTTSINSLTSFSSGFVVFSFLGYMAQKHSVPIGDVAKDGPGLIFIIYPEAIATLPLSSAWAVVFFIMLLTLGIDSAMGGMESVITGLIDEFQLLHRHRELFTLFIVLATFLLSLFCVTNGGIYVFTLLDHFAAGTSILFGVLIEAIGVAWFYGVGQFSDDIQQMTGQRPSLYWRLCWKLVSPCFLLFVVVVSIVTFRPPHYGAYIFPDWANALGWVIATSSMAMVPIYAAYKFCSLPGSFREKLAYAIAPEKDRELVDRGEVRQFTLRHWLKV
Chain of NA Transporter (hNAT) (P23975 whole entry): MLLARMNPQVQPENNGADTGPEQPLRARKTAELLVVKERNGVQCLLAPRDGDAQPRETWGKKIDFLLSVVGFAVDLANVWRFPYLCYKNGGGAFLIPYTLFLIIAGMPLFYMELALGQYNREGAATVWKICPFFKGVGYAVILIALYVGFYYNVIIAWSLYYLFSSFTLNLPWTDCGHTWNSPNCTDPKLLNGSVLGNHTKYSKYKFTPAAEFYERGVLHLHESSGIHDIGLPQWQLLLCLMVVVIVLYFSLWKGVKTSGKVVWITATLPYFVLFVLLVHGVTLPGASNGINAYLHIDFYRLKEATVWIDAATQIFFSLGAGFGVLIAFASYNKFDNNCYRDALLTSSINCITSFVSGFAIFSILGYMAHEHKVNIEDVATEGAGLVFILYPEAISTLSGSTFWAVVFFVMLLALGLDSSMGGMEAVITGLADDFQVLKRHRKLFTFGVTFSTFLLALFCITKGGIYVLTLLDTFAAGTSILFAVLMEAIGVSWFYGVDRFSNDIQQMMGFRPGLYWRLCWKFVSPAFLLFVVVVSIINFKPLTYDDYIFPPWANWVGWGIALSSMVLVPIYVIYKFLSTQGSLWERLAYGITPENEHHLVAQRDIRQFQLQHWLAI

## CN(C)CCC(c1ccc(Cl)c(Cl)c1)N1CCCC1 (stereo not shown) [VI-2, N,N-dimethyl-3-(3,4-dichlorophenyl)-3-(pyrrolidin-1-yl)-propylamine]
[1]; 20.0 mg/kg single intragastric administration, 1 h before test, 4 min observation, n=12
  IT (sec), immobility time: 36.19 ± 25.78 s
[1]; 20.0 mg/kg single oral administration, versus blank control IT
  Improvement (%): 63.52%
[1]; 20 mg/kg, efficacy similar to Venlafaxine
  effect on immobility time in the tail suspension test (in words): significant reduction in the immobility time
[2]; 6.5 mg/kg oral
  Mortality (%) 1 h: 0%
  Mortality (%) 2 h: 0%
  Mortality (%) 4 h: 0%
  Mortality (%) 5 h: 0%
  Mortality (%) 24 h: 0%
[2]; 11 mg/kg oral
  Mortality (%) 1 h: 0%
  Mortality (%) 2 h: 1%
  Mortality (%) 4 h: 0%
  Mortality (%) 5 h: 0%
  Mortality (%) 24 h: 0%
[2]; 18 mg/kg oral
  Mortality (%) 1 h: 1%
  Mortality (%) 2 h: 2%
  Mortality (%) 4 h: 0%
  Mortality (%) 5 h: 0%
  Mortality (%) 24 h: 0%
[2]; 30 mg/kg oral
  Mortality (%) 1 h: 2%
  Mortality (%) 2 h: 0%
  Mortality (%) 4 h: 0%
  Mortality (%) 5 h: 0%
  Mortality (%) 24 h: 0%
[2]; 30, 18 and 11 mg/kg oral, significant dose-effect relationship
  enhancement of Yohimbine toxicity (in words): enhances the toxicity of Yohimbine
[2]; Mus musculus, oral, Bliss method, DAS statistical software
  ED50: 32.8 mg/kg
[3]; 5 mg/kg
  Incubation period of escape: 140.3 ± 195.44 s
  Number of times of successful avoidance: 21.2 ± 6.73
[3]; 10 mg/kg
  Incubation period of escape: 188.3 ± 178.38 s
  Number of times of successful avoidance: 19.5 ± 8.83
[3]; 20 mg/kg
  Incubation period of escape: 171.1 ± 159.69 s
  Number of times of successful avoidance: 18.9 ± 9.35
[3]; [9]
  incubation period of escape (in words): significantly shortened incubation period of escape
  times of successful avoidance (in words): relatively more times of successful avoidance
[4]
  LD50: 950 mg/kg
[5]; 5000 μg per dish, TA98 without S9 and TA97 with S9, none at other dosages
  bacteriostatic action: bacteriostatic action is showed
[5]; TA97, TA98, TA100, TA102, with or without S9, all test dosages
  Ames test result: negative
[6]
  inhibition at 10 µM: 100%
[7]
  inhibition at 10 µM: 103%
[8]
  inhibition effect towards the reuptake of 5-HT (in words): relatively strong inhibition effect
[8]; HEK293, read-out: 5-HT Reuptake Inhibition
  inhibition at 10 µM: 94.8%
